According to patent US20080107625A1, “Inhibitors of Hepatitis C Virus” (Bristol-Myers Squibb Company, priority 2006, published 2008):

Molecular target: T1, HCV NS3/4A protease complex, J4L6S strain (Hepatitis C virus genotype 1b, UniProt O92972, C1454S/C1711G)
T1 construct: recombinant HCV NS3/4A protease complex (amino acids 1027 to 1711) for these strains; His-tag (inferred from pET21b vector and Ni-NTA purification); made in house; host or cells: Escherichia coli BL21 (DE3), pET21b
Assay: FRET peptide assay to monitor HCV NS3/4A proteolytic activity (J4L6S strain)
Type: biochemical
Conditions: J4L6S strain (1b genotype)
From the text: HCV NS3 protease complexes, derived from the BMS strain, H77 strain or J4L6S strain, were generated, as described below. These purified recombinant proteins were generated for use in a homogeneous assay (see below) to provide an indication of how effective compounds of the present disclosure would be in inhibiting HCV NS3 proteolytic activity.
The H77 and J4L6S strains were used for production of recombinant NS3/4A protease complexes. DNA encoding the recombinant HCV NS3/4A protease complex (amino acids 1027 to 1711) for these strains were manipulated as described by P. Gallinari et al. (see Gallinari P, Paolini C, Brennan D, Nardi C, Steinkuhler C, De Francesco R. Biochemistry. 38(17):5620-32, (1999)). Briefly, a three-lysine solubilizing tail was added at the 3′-end of the NS4A coding region. The cysteine in the P1 position of the NS4A-NS4B cleavage site (amino acid 1711) was changed to a glycine to avoid the proteolytic cleavage of the lysine tag. Furthermore, a cysteine to serine mutation was introduced by PCR at amino acid position 1454 to prevent the autolytic cleavage in the NS3 helicase domain. […]

T1 sequence (O92972 1027-1711 C1454S/C1711G, one chain of several): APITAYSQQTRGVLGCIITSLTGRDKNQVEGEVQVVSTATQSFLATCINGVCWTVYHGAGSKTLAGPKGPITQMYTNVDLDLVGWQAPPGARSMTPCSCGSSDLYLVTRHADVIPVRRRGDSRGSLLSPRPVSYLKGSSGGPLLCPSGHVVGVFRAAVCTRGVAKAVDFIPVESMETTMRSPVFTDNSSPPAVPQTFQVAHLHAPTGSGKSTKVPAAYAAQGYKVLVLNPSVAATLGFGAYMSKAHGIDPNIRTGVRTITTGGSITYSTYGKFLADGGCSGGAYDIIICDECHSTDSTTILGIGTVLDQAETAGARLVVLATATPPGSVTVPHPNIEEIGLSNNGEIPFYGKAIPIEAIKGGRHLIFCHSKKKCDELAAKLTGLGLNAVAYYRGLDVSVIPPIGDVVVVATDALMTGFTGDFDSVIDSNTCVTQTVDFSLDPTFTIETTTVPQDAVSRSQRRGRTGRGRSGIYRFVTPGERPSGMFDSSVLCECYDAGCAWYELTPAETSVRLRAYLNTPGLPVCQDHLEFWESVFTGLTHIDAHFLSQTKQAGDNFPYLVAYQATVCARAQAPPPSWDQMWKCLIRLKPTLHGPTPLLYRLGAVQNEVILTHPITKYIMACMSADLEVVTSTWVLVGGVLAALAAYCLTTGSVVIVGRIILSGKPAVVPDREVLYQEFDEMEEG

CC(C)(C)OC(=O)N[C@H]1CN(C2CC2)CCC/C=C\C2C[C@@]2(C(=O)NS(=O)(=O)C2CC2)NC(=O)[C@@H]2C[C@@H](Oc3ccccn3)CN2C1=O (stereo partly shown) [Compound 1]
IC50: 12 nM
